Measurements taken from EP0273199A2, “Uses of 3,4-diphenyl piperidine derivatives or medicines, 3,4-diphenyl piperidine derivatives, and process for their preparation” (LABORATOIRES HOECHST S.A., priority 1986, dated 1988).
Several values for one entry are separate records, joined by “and”; a condition that tells them apart may be missing. Identical values can stand only once. Counter-ions that a name gives are not always drawn. Like-named read-outs stand apart in the source and are kept apart here.

Assays:
Apomorphin 16 mg/kg = test: Antiapomorphine activity (apomorphine 16 mg/kg s.c., hypothermia); assay type: in vivo, Maus
Experimental: Zur Zeit 0 nach Ausgleich der Reaktaltemperaturen werden die Mäuse (6 pro Gruppe) in deren Beobachtung gestattende Einzelkäfige (11 x 3,5 x 4 cm) eingeetzt. 30 Minuten nach i.p. bzw. p.o. Verabreichung der Testsubstanz erhalten sie Apomorphin subkutan in einer Dosis von 16 mg/kg. Die Rektaltemperatur wird 30 Minuten nach dem Apomorphin gemessen. Die Kontrolltiere erhalten destilliertes Wasser statt der zu untersuchenden Verbindungen. Die bei diesen Kontrolltieren, die 16 mg/kg Apomorphin erhalten haben, beobachtete Hypothermie liegt im Durchschnitt bei 33°C. Für jede Verbindungsdosis berechnet man die prozentuale Hemmung der Hypothermie.

[1] = test system: durch Reserpin induzierten Hypothermie; test: Antireserpine activity (reserpine-induced hypothermia); assay type: in vivo, Maus
Experimental: Zur Zeit 0 erhalten die Mäuse intraperitoneal Reserpin (2,5 mg/kg).
4 Stunden danach, wenn die Hypothermie genügend stark erscheint (30 bis 33°C), verabreicht man die verschiedenen zu untersuchenden Verbindungen i.p. oder p.o. Alle 30 Minuten über einen Zeitraum von 2 Stunden mißt man die Rektaltemperatur mit einer auf konstante Tiefe eingeführten, ein Thermoelement tragenden Sonde. Die Rektaltemperatur der mit verschiedenen erfindungsgemäßen Verbindungen behandelten Tiere wird mit der Temperatur einer Kontrollgruppe verglichen, die destilliertes Wasser auf die gleiche Weise wie die untersuchten Verbindungen erhält.
Die Akinesie (fehlende Bewegungen) und Ptose (Öffnungsgrad des Augenlids von 0 bis 4 nach Rubin u.a 1957) werden ebenfalls alle 30 Minuten über einen Zeitraum von 2 Stunden bewertet.
Die eine antidepressive Aktivität besitzenden Produkte wirken der durch Reserpin induzierten Hypothermie entgegen. Für jede Dosis der verabreichten Verbindung berechnet man die prozentuale Hemmung der Hypothermie.

Toxizität des Yohimbins = test: Potentiation of yohimbine toxicity; assay type: in vivo, Maus; details: for minimal effective dose: Mus musculus, ip; for Erste wirksame Dosis Yohimbin: mouse, i.p.
Experimental: Wirkung auf die Toxizität des Yohimbins
Zur Zeit 0 erhalten die Mäuse entweder destilliertes Wasser oder verschiedene zu untersuchende Verbindungen i.p. 30 Minuten danach verabreicht man ihnen subkutan eine infratoxische Dosis von 25 mg/kg Yohimbinchlorhydrat.
Die Mortalität wird jede Stunde über einen Zeitraum von 4 Stunden verfolgt und dann nach 24 Stunden notiert.
Die eine antidepressive Aktivität besitzenden Produkte verursachen eine Potenzierung der Toxizität des Yohimbins.

Motoraktivität = test: Actimetry (motor activity, photocell actimeter); assay type: in vivo, Maus; details: mouse; direction of change of motor activity
Description: Die Motoraktivität wird mittels Photozellenaktimetern bestimmt (Boissier und Simon, Arch. Int. Pharmacodyn. 1965, 158, 212-221).
Die Mäuse (10 oder ein Vielfaches von 10 pro Gruppe) werden unmittelbar nach i.p. Verabreichung der zu untersuchenden Verbindungen in das Aktimeter eingesetzt. Die Motoraktivität wird danach bis zur 60. Minute gemessen. De Zähler werden nach 30 Minuten abgelesen und dann auf 0 zurückgestellt und im Verlauf von 30 Minuten alle 10 Minuten abgelesen.
Die Beweglichkeit der mit den verschiedenen Verbindungen behandelten Tiere wird mit derjenigen einer destilliertes Wasser erhaltenden Kontrollgruppe verglichen.
Die eine psychostimulierende Aktivität besitzenden Produkte verursachen eine Zunahme der Beweglichkeit.

Maus [2] = test: Tail suspension test; assay type: in vivo; details: ip; mouse, i.p.; footnote of Tabelle 1; read-out: tail suspension test= positiv ab
Description: Schwanzaufhängungstest an der Maus wie von Stéru u.a. beschrieben (Psychopharmacology 85, 367-370, 1985).
Die Substanzen werden intraperitoneal 30 Minuten vor dem Test verabreicht und die Tiese isoliert (10 Mäuse pro Dosis).
Man bewertet die Dauer der Unbeweglichkeit, ausgedrückt in Sekunden über die 6 Minuten des Tests. Man untersucht auf eine Verkürzung dieser Unbeweglichkeitszeit.

Maus [3] = test: Hot plate test (licking and jumping), analgesia; assay type: in vivo
Experimental: Heizplattentest: Lecken und Springen, wie von Jacob und Blozovski beschrieben (Arch. Int. Pharmacodyn. 133, 296-209, 1961).
Die in Sekunden ausgedrückten Reaktionszeiten auf einer Heizplatte werden unter Berücksichtigung des Leckens der Vorderpfoten und Springen des Tieres als Kriterien bewertet. Die beiden Reaktionen werden am selben, anfänglich untrainierten Tier mit einer maximalen Ansprechzeit (Obergrenze) von 240 Sekunden beobachtet. Die Temperatur der Platte wird auf 56,6°C gehalten.
Morphin als positive Kontrolle wird subkutan und die übrigen Substanzen (mg/kg) werden intraperitoneal 30 Minuten vor dem Test verabreicht. Positives Ansprechen zeigt sich in einer Zunahme der Reaktionszeit.
Wird der schadensverhütenden Wirkung eine Substanz durch Naloxon entegengewirkt, so kann man schließen, daß die Substanz tatsächlich eine analgetische Wirkung besitzt.

L-5-Hydroxytryptophan = test: Potentiation of L-5-hydroxytryptophan effects (head twitches, tremor); assay type: in vivo, Maus; details: mouse, 1 mg/kg i.p., 30 min before L-5 HTP 4 mg/kg i.p.
Experimental: L-5 HTP induziert an der Maus ruckartige Bewegungen des Kopfes (Kopfzuckungen). Die zu untersuchenden Substanzen werden den Tieren (10 Mäuse pro Dosis) intraperitoneal 30 Minuten vor dem L-5 HTP (4 mg/kg intraperitoneal) verabreicht. Die ruckartigen Kopfbewegungen und der Tremor werden 1 Minutre lang alle 10 Minuten im Verlauf einer Stunde bewertet. Desimipramin und Indalpin sind die Kontrol-(Vergleichs-)verbindungen. Ein antidepressiver Effekt zeigt sich durch eine Zunahme der ruckartigen Kopfbewegungen und des Tremors.

[4] = Mus musculus, ip, read-out: Erste wirksame Dosis Apomorphin 16 mg/kg, mouse, i.p., only or lowest value of the cell
[5] = Mus musculus, ip, read-out: Erste wirksame Dosis Reserpin, mouse, i.p., only or lowest value of the cell
[6] = read-out: Erste wirksame Dosis Yohimbin, mouse, i.p., only or lowest value of the cell
[7] = ip, mouse, i.p., only or lowest value of the cell, read-out: Erste wirksame Dosis Apomorphin 16 mg/kg
[8] = ip, mouse, i.p., only or lowest value of the cell, read-out: Erste wirksame Dosis Reserpin
[9] = Mus musculus, read-out: Erste wirksame Dosis Apomorphin 16 mg/kg, mouse, further value in the same cell, route not stated (lowest = i.p.; p.o. also tested)
[10] = mouse, i.p., only or lowest value of the cell
[11] = only or lowest value of the cell
[12] = mouse, reaction time, 8 mg/kg i.p., plate 56,6°C
[13] = mouse, Tabelle 5a, Naloxon alone 0,5 mg/kg

SMILES: Oc1ccc([C@@H]2CCNC[C@H]2c2ccccc2)cc1 (racemic) [7 (1.Stufe), trans-4-(4-Hydroxyphenyl)-3-phenylpiperidin-bromhydrat]
- minimal effective dose (Apomorphin 16 mg/kg; [4]): 0.5 mg/kg
- minimal effective dose [1, 5]: 32 mg/kg
- minimal effective dose (Toxizität des Yohimbins; [6]): 4 mg/kg
- minimal effective dose (Toxizität des Yohimbins; read-out: Erste wirksame Dosis Yohimbin, mouse, further value in the same cell, route not stated (lowest = i.p.)): 16 mg/kg
- Aktimetrie (Motoraktivität): ↘

SMILES: COc1ccc([C@@H]2CCNC[C@H]2c2ccccc2)cc1 (racemic) [Beispiel 2, trans-4-(4-Methoxyphenyl)-3-phenylpiperidinchlorhydrat]
- minimal effective dose (Maus [2]): ≥ 8 mg/kg
- minimal effective dose (Apomorphin 16 mg/kg; [7]): 1 mg/kg
- minimal effective dose (Apomorphin 16 mg/kg; mouse, further value in the same cell, route not stated (lowest = i.p.; p.o. also tested), read-out: Erste wirksame Dosis Apomorphin 16 mg/kg): 2 mg/kg
- minimal effective dose [1, 8]: 4 mg/kg
- Aktimetrie (Motoraktivität): ↘

SMILES: CC(=O)Oc1ccc([C@@H]2CCNC[C@H]2c2ccccc2)cc1 (racemic) [Beispiel 11, trans-4-(4-Acetoxyphenyl)-3-phenylpiperidinchlorhydrat]
- minimal effective dose (Apomorphin 16 mg/kg; [7]): 1 mg/kg
- minimal effective dose [1, 8]: 4 mg/kg
- minimal effective dose (Toxizität des Yohimbins; [6]): 16 mg/kg

SMILES: Cc1ccc([C@@H]2CCNC[C@H]2c2ccccc2)cc1 (relative stereo) [10 (Base), trans-4-(4-Methylphenyl)-3-phenylpiperidin]
- minimal effective dose (Apomorphin 16 mg/kg; [4]): 16 mg/kg
- minimal effective dose (Apomorphin 16 mg/kg; [9]): 32 mg/kg
- Erste wirksame Dosis Reserpin [1, 10]: 16 mg/kg
- minimal effective dose (Toxizität des Yohimbins; [6]): 16 mg/kg
- Aktimetrie (Motoraktivität): ↘

SMILES: Cc1ccc([C@@H]2CCNC[C@H]2c2ccccc2)cc1 (relative stereo) [10 (HCl-Salz), trans-4-(4-Methylphenyl)-3-phenylpiperidin]
- Erste wirksame Dosis Apomorphin 16 mg/kg (Apomorphin 16 mg/kg; [10]): 16 mg/kg
- minimal effective dose ([1]; Mus musculus, read-out: Erste wirksame Dosis Reserpin, mouse, further value in the same cell, route not stated (lowest = i.p.; p.o. also tested)): 16 mg/kg
- Erste wirksame Dosis Reserpin [1, 10]: 4 mg/kg
- Aktimetrie (Motoraktivität): ↘

SMILES: c1ccc([C@@H]2CCNC[C@H]2c2ccccc2)cc1 (relative stereo) [21 (HCl-Salz), trans-3,4-Diphenylpiperidin]
- Erste wirksame Dosis Apomorphin 16 mg/kg (Apomorphin 16 mg/kg; [10]): 4 mg/kg
- Erste wirksame Dosis Reserpin [1, 10]: 4 mg/kg
- Erste wirksame Dosis Yohimbin (Toxizität des Yohimbins; [11]): 16 mg/kg
- Aktimetrie (Motoraktivität): ↗

SMILES: Clc1ccc(C2CNCCC2c2ccccc2)cc1 (stereo not drawn) [8 (Base), trans-3-(4-Chlorphenyl)-4-phenylpiperidin]
- minimal effective dose (Apomorphin 16 mg/kg; [4]): 16 mg/kg
- minimal effective dose [1, 5]: 8 mg/kg
- Aktimetrie (Motoraktivität): ↘

SMILES: Clc1ccc(C2CNCCC2c2ccccc2)cc1 (stereo not drawn) [8 (HCl-Salz), trans-3-(4-Chlorphenyl)-4-phenylpiperidin]
- Erste wirksame Dosis Apomorphin 16 mg/kg (Apomorphin 16 mg/kg; [10]): 8 mg/kg
- Erste wirksame Dosis Reserpin [1, 10]: 4 mg/kg
- minimal effective dose (Toxizität des Yohimbins; [6]): 16 mg/kg
- Aktimetrie (Motoraktivität): ↘

SMILES: Clc1ccc([C@@H]2CCNC[C@H]2c2ccccc2)cc1Cl [15 (Base)]
- Erste wirksame Dosis Apomorphin 16 mg/kg (Apomorphin 16 mg/kg; [10]): 0,5 mg/kg
- Erste wirksame Dosis Reserpin [1, 10]: 0,5 mg/kg
- Erste wirksame Dosis Yohimbin (Toxizität des Yohimbins; [11]): 4 mg/kg
- Aktimetrie (Motoraktivität): ↗

SMILES: Clc1ccc(C2CNCCC2c2ccccc2)cc1Cl (stereo not drawn) [Beispiel 13, trans-3-(3,4-Dichlorphenyl)-4-phenyl-piperidin-maleinat]
- minimal effective dose (Apomorphin 16 mg/kg; [4]): 4 mg/kg
- minimal effective dose [1, 5]: 8 mg/kg
- minimal effective dose (Toxizität des Yohimbins; [6]): 16 mg/kg
- Aktimetrie (Motoraktivität): ↘

SMILES: Clc1ccc([C@@H]2CCNC[C@H]2c2ccccc2)cc1 [Beispiel 18]
- minimal effective dose (Apomorphin 16 mg/kg; [4]): 0.5 mg/kg
- minimal effective dose (Apomorphin 16 mg/kg; [9]): 2 mg/kg
- minimal effective dose [1, 5]: 0.5 mg/kg
- minimal effective dose (Toxizität des Yohimbins; [6]): 1 mg/kg
- Aktimetrie (Motoraktivität): ↗

SMILES: c1ccc2c(CCC3CCNCC3)c[nH]c2c1 [Indalpin, reference compound]
- Pfotenlecken (Maus [3]; [12]): 8,4 ± 1,2 p < 0,02 Sekunden
- Sprünge (Maus [3]; [12]): 132 ± 12 p ± 0,01 Sekunden
- Tremor (L-5-Hydroxytryptophan): 2,0 ± 0,7
- ruckartige Kopfbewegungen (L-5-Hydroxytryptophan): 4,1 ± 0,7 p < 0,01

SMILES: CN1CC[C@]23c4c5ccc(O)c4O[C@H]2[C@@H](O)C=C[C@H]3[C@H]1C5 [Morphin, reference compound]
- Pfotenlecken (Maus [3]; in vivo, sc, 2 mg/kg): 8,1 ± 0,6 p < 0,01 Sekunden
- Sprünge (Maus [3]; in vivo, sc, 2 mg/kg): 158 ± 17 p < 0,01 Sekunden

SMILES: C=CCN1CC[C@]23c4c5ccc(O)c4O[C@H]2C(=O)CC[C@@]3(O)[C@H]1C5 [Naloxon, reference compound]
- Pfotenlecken (Maus [3]; [13]): 5,5 ± 0,3 Sekunden and 5,2 ± 0,3 Sekunden
- Sprünge (Maus [3]; [13]): 63 ± 6 Sekunden and 67 ± 5 Sekunden
